Measurements reported in article PMC12486152, “Design, modular synthesis and screening of 58 shape-diverse 3-D fragments” (Chemical Science, 2025).

Target: T1, N-acetylglucosaminyltransferase V (MGATV) (Homo sapiens, UniProt Q09328)
T1 construct: gene MGAT5
Test: X-ray crystal structure by soaking; also thermal shift, STD NMR and enzyme (UDP-Glo) inhibition (IC50, n = […])
Format: biochemical

T1 sequence (Q09328 214-741): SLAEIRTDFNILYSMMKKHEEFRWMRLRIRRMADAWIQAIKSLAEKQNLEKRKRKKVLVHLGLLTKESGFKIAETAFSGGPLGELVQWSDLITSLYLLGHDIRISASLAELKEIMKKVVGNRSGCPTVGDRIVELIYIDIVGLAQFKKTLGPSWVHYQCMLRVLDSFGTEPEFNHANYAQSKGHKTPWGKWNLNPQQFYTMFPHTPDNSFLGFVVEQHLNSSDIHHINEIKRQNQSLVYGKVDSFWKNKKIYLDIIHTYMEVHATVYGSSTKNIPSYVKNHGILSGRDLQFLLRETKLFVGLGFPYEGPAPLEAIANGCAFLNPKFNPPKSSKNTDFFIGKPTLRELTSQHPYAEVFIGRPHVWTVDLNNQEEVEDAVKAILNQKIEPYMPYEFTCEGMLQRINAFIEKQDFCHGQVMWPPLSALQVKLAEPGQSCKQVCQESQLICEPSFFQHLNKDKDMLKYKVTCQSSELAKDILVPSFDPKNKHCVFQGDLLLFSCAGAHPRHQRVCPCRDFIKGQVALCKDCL

CC(=O)N1CCCC(C(=O)O)(c2ccc(C)cc2)C1 (racemic) [8p]
IC50: ~4.4 mM
